# In US6797726B1, “N-alkoxyalkyl-N,N-dialkylamine derivatives or salts thereof, and remedies for nerve degeneration diseases containing the same” (Toyama Chemical Co., Ltd., priority 1999, dated 2004):
# Counter-ions that a name gives are not always drawn.
# System: not given
# Test: not given
# Settings: not given
row,SMILES,melting point [°C]
1,CN(C)CCOCCc1cccc2ccccc12.Cl,183 to 184
2,CCN(CC)CCOCCc1ccc2sc(C)cc2c1.O=C(O)C(=O)O,96 to 98
3,CN(CCOCCc1ccc2sccc2c1)CCOC(=O)c1ccccc1.Cl,97 to 98
4,CN(CCCO)CCOCCc1ccc2sccc2c1.O=C(O)C(=O)O,93 to 95
5,CN(CCO)CCOCCc1cccc2ccsc12.Cl,74 to 76
6,CCN(CC)CCOCCc1ccc2ccccc2c1.O=C(O)C(=O)O,67 to 72
7,CCN(CC)CCOCCc1ccc2ncccc2c1.O=C(O)C(=O)O,90 to 92
8,CC(COCCc1ccc2sccc2c1)N(C)CCO.O=C(O)C(=O)O (stereo not shown),72 to 74
9,CCN(CC)CCOCCc1ccc2sc(C(=O)O)cc2c1.Cl,148 to 150
10,CCN(CC)CCOCCc1ccc2occc(=O)c2c1.Cl,173 to 176
11,CN(CCO)CCOCCc1cc2ccsc2cc1F.O=C(O)C(=O)O,96 to 99
12,CN(C)CCOCCc1ccc2sc(-c3ccccc3)cc2c1.Cl,170 to 172
13,CCN(CC)CCCCCOCCc1ccc2sccc2c1.Cl,138.5 to 140
14,CN(C)CCOCCc1ccc(F)c2ccsc12.Cl,67 to 69
15,CN(C)CCOCCc1cc2ccsc2cc1Cl.Cl,105 to 108
16,CCN(CC)CCOCCc1c(F)ccc2ccsc12.Cl,71 to 73.5
17,CN(C)CCOCCc1ccc2c(c1)OCO2.O=C(O)C(=O)O,109 to 112
18,CN(CCO)CCOCCc1ccc2sc(F)cc2c1.O=C(O)C(=O)O,77 to 80
19,Cc1cc2cc(CCOCCN(C)CCO)ccc2s1.O=C(O)C(=O)O,73 to 75
20,CN(CCOCCc1ccc2sccc2c1)Cc1ccc([N+](=O)[O-])cc1.O=C(O)C(=O)O,112 to 114
21,CCN(CC)CCOCCc1cccc2ccsc12.O=C(O)C(=O)O,75 to 76
22,O=C(O)C(=O)O.OCCN(CCOCCc1ccc2sccc2c1)Cc1ccccc1,104 to 105.5
23,CCOC(=O)OCCN(C)CCOCCc1ccc2sccc2c1.Cl,73.5 to 76
24,CCN(CC)CCOCCc1cc2ccsc2cc1OC.O=C(O)C(=O)O,80 to 83
25,CN(C)CCOCCc1ccc2ccccc2c1.Cl,105 to 107
26,CN(CCO)CCOCCc1c(F)ccc2ccsc12.Cl,69 to 72
27,CC(C)N(CCOCCc1ccc2sccc2c1)C(C)C.Cl,78 to 79

row,SMILES,melting point [°C]
1,CCC(Cc1ccc2sccc2c1)OCCN(CC)CC.Cl (stereo not shown),84.5 to 87
2,CN(C)CCOCCc1cccc2ccsc12.Cl,130 to 132
3,COc1ccc2cc(CCOCCN(C)C)ccc2c1.Cl,125 to 128
4,CN(CCOCCc1cc2ccsc2cc1F)Cc1ccccc1.O=C(O)C(=O)O,96 to 98
5,CCN(CC)CCCOCCc1ccc2sccc2c1.O=C(O)C(=O)O,87.5 to 89
6,CN(C)CCOCCc1ccc2sccc2c1F.O=C(O)C(=O)O,118 to 121
7,CN(C)CCOCCc1cc2ccsc2cc1F.O=C(O)C(=O)O,120 to 126
8,CC(CO)N(C)CCOCCc1ccc2sccc2c1.O=C(O)C(=O)O (stereo not shown),97 to 99
9,CN(C)CCN(C)CCOCCc1ccc2sccc2c1.Cl.Cl,228 to 230
10,CCN(CC)CCCCCc1ccc2sccc2c1.O=C(O)C(=O)O,58 to 60
11,CCCN(CCC)CCOCCc1ccc2sccc2c1.O=C(O)C(=O)O,93 to 98
12,CN(CCOCCc1ccc2sccc2c1)CCOC(=O)C(C)(C)C.Cl,118 to 119
13,CN(C)CCOCCc1ccc2occc2c1.O=C(O)C(=O)O,101 to 103
14,COc1ccc(CN(C)CCOCCc2ccc3sccc3c2)cc1.O=C(O)C(=O)O,78.5 to 81
15,CN(CCOCCc1ccc2sccc2c1)Cc1ccc(F)cc1.O=C(O)C(=O)O,149 to 150.5
16,"CCN(CC)CCOCCc1ccc2c(c1)CCC2.Cl [Example 105, N-{2-[2-(2,3-Dihydro-1H-inden-5-yl)ethoxy]ethyl}-N,N-diethylamine hydrochloride]",104 to 105
17,CCN(CC)CCOCCc1cc2occc2cc1OC.Cl,90 to 92
18,CN(C)CCOCCc1ccc2sccc2c1Cl.Cl,92 to 95
19,C#CCN(CCOCCc1ccc2sccc2c1)Cc1ccccc1.O=C(O)C(=O)O,107 to 108
20,CN(C)CCOCCc1cccc2sccc12.Cl,165 to 167
21,"CCN(CC)CCOCCc1ccc2c(c1)OCO2 [Example 25, N-{2-[2-(1,3-benzodioxol-5-yl)ethoxy]ethyl}-N,N-diethylamine]",83 to 84
22,CCN(CC)CCOCCc1c(F)cc2ccsc2c1F.Cl,98 to 100
23,CN(CCO)CCCCCOCCc1ccc2sccc2c1.O=C(O)C(=O)O,78.5 to 80.5
24,CCN(CCO)CCOCCc1ccc2sccc2c1.O=C(O)C(=O)O,53 to 56
25,C#CCN(CC)CCOCCc1ccc2sccc2c1.Cl,115 to 123
26,CCN(CC)CCOCCc1cccc2sccc12.O=C(O)C(=O)O,79 to 82

# System: cultured nerve cells death induced by HNE
# Test: Activity of inhibiting the HNE-induced nerve cell death (MTT assay)
# Format: cell-based, Wistar rat
# Settings: 0.1 μM; HNE 25 μmol/L; cultured rat embryo cerebral cortex nerve cells; 24 hours
# Description: The protecting effect against the death of cultured nerve cells induced by HNE was examined by a modification of the method described in the Journal of Neuroscience, Vol. 17, Page 5089 (1997).
# Cerebral cortex excised from the brain of an embryo of Wistar rat (embryonal age 17-19 days) was cut into small pieces and then treated with trypsin to dissociate the nerve cells. The cells were spread onto a 48-well tissue-culture plate at a rate of 5×10^5 cells per well, and cultured under a condition of 5% carbon dioxide, 37° C., in a Dulbecco modified Eagle medium to which 10% fetal calf serum and 3.6 mg/mL glucose were added.
# In order to inhibit the proliferation of glia cells, cytosine arabinoside was added so as to give a final concentration of 10 μmol/L, from the day one after starting the culture. When the culture had been continued for 2 days, the medium was changed to a Dulbecco modified Eagle medium to which 10% fetal calf serum and 3.6 mg/mL glucose were added. When the culture had been continued for 7-8 days, a test agent was added, after which HNE was immediately added so as to give a final concentration of 25 μmol/L.
# The inhibitory activity of an agent on the cultured nerve cell death was […] by using the inhibitory activity on the depression of MTT reducing ability as an index. That is, 24 hours after addition of a test agent, MTT assay [Journal of Immunological Methods, Vol. 65, Page 55 (1983)] developed by Mossmann was carried out, based on which inhibitory rate (%) of the agent on the decrease of MTT assay induced by HNE was calculated.
# Inhibitory rate=[MTT assay value of (HNE+agent)−added group)−(MTT assay value of HNE−added group)]÷(MTT assay value of no addition group−MTT assay value of HNE−added group)]×100
row,SMILES,Inhibitory rate on the decrease of MTT assay induced by HNE [%]
1,"CN(CCO)CCCOCCc1ccc2sccc2c1.O=C(O)C(=O)O [Example 76, 2-{[3-(2-benzo[b]thiophen-5-ylethoxy)propyl]-(methyl)amino}-1-ethanol oxalate]",49
2,"CN(CCOCCc1ccc2sccc2c1)Cc1ccccc1.O=C(O)C(=O)O [Example 20, N-[2-(2-benzo[b]thiophen-5-ylethoxy)ethyl]-N-benzyl-N-methylamine oxalate]",69
3,"CCN(CC)CCOCCc1ccc2c(c1)CCC2.Cl [Example 105, N-{2-[2-(2,3-Dihydro-1H-inden-5-yl)ethoxy]ethyl}-N,N-diethylamine hydrochloride]",31

# System: ddY male mice
# Test: Anti-hypoxic activity
# Format: in vivo
# Settings: 100 mg/kg orally, 30 minutes after administration, gas 4% oxygen / 96% nitrogen at 5 L/minute
# Protocol: A test compound (100 mg/kg) dissolved in distilled water is orally administered to ddY male mice of 5-6 weeks age (6-10 heads per group). Thirty minutes after the administration, each mouse was introduced into a glass vessel, and a gas mixture consisting of 4% of oxygen and 96% of nitrogen was passed through the glass vessel at a rate of 5 L/minute. The period of the time from the beginning of sending the gas to the death of the animal was measured.
# To the control group, only distilled water was orally given. Anti-hypoxic activity of test compound was calculated according to the following equation:
# (Survival time of mouse in administered group)÷(Survival time of mouse in control group)×100(%)
row,SMILES,Anti-hypoxic activity: (survival time of mouse in administered group)÷(survival time of mouse in control group)×100 [%]
1,"C#CCN(C)CCOCCc1ccc2sccc2c1.Cl [Example 70, N-[2-(2-benzo[b]thiophen-5-ylethoxy)ethyl]-N-methyl-N-(2-pripynyl)amine hydrochloride]",213

# Same assay, conditions: Mus musculus, po, 0.5 h, 100 mg/kg orally, 30 minutes after administration, gas 4% oxygen / 96% nitrogen at 5 L/minute, read-out: Anti-hypoxic activity: (survival time of mouse in administered group)÷(survival time of mouse in control group)×100
row,SMILES,response vs control in vivo at 100 mg/kg [%]
1,"CCN(CC)CCOCCc1ccc2ccsc2c1 [Example 101, N-[2-(2-Benzo[b]thiophen-6-ylethoxy)ethyl]-N,N-diethylamine oxalate]",187
2,"COc1cc2sccc2cc1CCOCCN(C)C [Example 53, N,N-Dimethyl-N-{2-[2-(6-methoxybenzo[b]thiophen-5-yl)ethoxy]ethyl}-amine hydrochloride]",200
3,"CCN(CC)CCOCCc1ccc2occc2c1 [Example 13, N-[2-(2-Benzo[b]furan-5-ylethoxy)ethyl]-N,N-diethylamine oxalate]",160
4,"CN(CCO)CCCOCCc1ccc2sccc2c1.O=C(O)C(=O)O [Example 76, 2-{[3-(2-benzo[b]thiophen-5-ylethoxy)propyl]-(methyl)amino}-1-ethanol oxalate]",194
5,"CCN(CC)CCOCCc1cccc2ccccc12 [Example 49, N,N-diethyl-N-{2-[2-(1-naphthyl)ethoxy]ethyl}-amine oxalate]",173
6,"CN(CCOCCc1ccc2sccc2c1)C1CC1 [Example 158, N-[2-(2-benzo[b]thiophen-5-ylethoxy)ethyl]-N-cyclopropyl-N-methylamine hydrochloride]",179
7,"CCN(CC)CCOCCc1cc2ccsc2cc1F [Example 31, N,N-diethyl-N-{2-[2-(6-fluorobenzo[b]thiophen-5-yl)ethoxy]ethyl}amine oxalate]",248
8,"CN(CCOCCc1ccc2sccc2c1)Cc1ccccc1.O=C(O)C(=O)O [Example 20, N-[2-(2-benzo[b]thiophen-5-ylethoxy)ethyl]-N-benzyl-N-methylamine oxalate]",155
9,"CC(O)CN(C)CCOCCc1ccc2sccc2c1 (stereo not shown) [Example 144, 1-{[2-(2-Benzo[b]thiophen-5-ylethoxy)ethyl]-(methyl)amino}-2-propanol oxalate]",250
10,"CCN(C)CCOCCc1ccc2sccc2c1 [Example 102, N-[2-(2-Benzo[b]thiophen-5-ylethoxy)ethyl]-N-ethyl-N-methylamine oxalate]",210
